{"source": "patent US9096650B2", "about": "“Cyclic oligopeptides for binding to a target ligand” (LEXCICON LIMITED, priority 2006, dated 2015)", "key": {"TNF secretion": {"test_system": "TNF secretion", "conditions": "in words; literature reference; cited from earlier work"}, "[1]": {"test_system": "J774A.1 cells (a macrophage cell line)", "assay": "Dose response: suppression of TNF secretion stimulated by lipopolysaccharide (LPS) in a macrophage cell line (Example 1)", "type": "cell-based", "conditions": "LPS 0.625 ug/ml", "description": "• 1. A cyclic octapeptide with the structure: cyclo(-DF-S-Σ-R-DF-S-Σ-R-) • was synthesised using standard methods based on the Merrifield resin-based technique, followed by solution-phase cyclisation. The purified peptide was prepared as a solution in distilled water at a concentration of 1 mg/ml. • R, F and S represent the epitope-forming amino acids and Σ represents the associating functional group borne on the associating amino acid wherein the associating amino acid is an L-alpha aminocarboxylic acid and the associating functional group is a side-chain residue consisting of a straight aliphatic chain containing ten carbon atoms. • All amino acids are in the L form unless indicated otherwise. • All amino acids are linked by peptide bonds. • 2. J774A.1 cells (a macrophage cell line) were plated out in all the wells of a 24-well cluster plates at a seeding density of 5×10^5 cells/ml/well (1 ml RPMI 1640 culture medium per well), and incubated overnight at 37° C. in 5% CO2/air. • 3. The following day, the solution from step 1 was administered to fifteen wells containing cells in step 2, to give three wells each with a final concentration of 50, 25, 12.5, 6.25 or 3.125 ug/ml. The remaining wells were left untreated. The plate was incubated for a further four hours at 37 degC. • 4. Lipopolysaccharide (from E. coli strain 0111 B4) was added to the wells receiving the octapeptide solution, as well as three of the wells receiving no peptide. The final concentration of lipopolysaccharide was 0.625 ug/ml. • 5. The plate was incubated overnight, and the following day the supernatants were assayed for TNF using a commercial ELISA kit."}, "[2]": {"test_system": "J774-1 cells (a macrophage cell line)", "assay": "Suppression of TNF secretion stimulated by LPS in a macrophage cell line, varying epitope order and stereochemistry of associating amino acids (Example 3)", "type": "cell-based", "conditions": "peptide 50 ug/ml; LPS 1.25 ug/ml; LPS alone 1861.9", "description": "• 1. Cyclic octapeptides were prepared with the following structures: cyclo(-DF-S-ΣL-R-DF-S-ΣL-R-) cyclo(-DF-S-ΣL-R-DF-S-ΣD-R-) cyclo(-DF-S-ΣD-R-DF-S-ΣD-R-) cyclo(-DF-R-ΣL-S-DF-R-ΣL-S-) cyclo(-DF-R-ΣL-S-DF-R-ΣD-S-) cyclo(-DF-R-ΣD-S-DF-R-ΣD-S-) wherein F, S and R are the epitope-forming amino acids, ΣL represents an associating amino acid which is an L-alpha aminocarboxylic acid in which the associating functional group is a side-chain residue consisting of an unbranched —C10H21; ΣD represents an associating amino acid which is a D-alpha aminocarboxylic acid in which the associating functional group is a side-chain residue consisting an unbranched —C10H21. These cyclic oligopeptides were prepared as solutions in distilled water at a concentration of 1 mg/ml. • 2. J774-1 cells (a macrophage cell line) were plated out in all the wells of a 24-well cluster plates at a seeding density of 3×10^5 cells/ml/well (1 ml RPMI 1640 culture medium per well), and incubated overnight at 37° C. in 5% CO2/air. • 3. The following day, the solutions from step 1 were administered to eighteen wells containing cells in step 2, to give three wells each with a final concentration of 50 ug/ml. The remaining wells were left untreated. The plate was incubated for a further four hours at 37 degC. • 4. Lipopolysaccharide (from E. coli strain 0111 B4) was added to the wells receiving the octapeptide solutions, as well as three of the wells receiving no peptide. The concentration of lipopolysaccharide was 1.25 ug/ml. • 5. The plate was incubated overnight, and the following day the supernatants were assayed for TNF using a commercial ELISA kit."}, "[3]": {"test_system": "J774A.1 cells (a macrophage cell line)", "assay": "Suppression of LPS-stimulated TNF secretion by peptide formulated with hydroxypropyl beta-cyclodextrin (Example 4)", "type": "cell-based", "description": "• 1. A cyclic octapeptide with the structure cyclo(-DF-S-Σ-R-DF-S-Σ-R-) was prepared as a solution in transcutol at a concentration of 5 mg/ml, where Σ represents the associating amino acid as an L-alpha aminocarboxylic acid and the associating functional group borne on the associating amino acid as a side-chain residue consisting of a straight aliphatic chain containing ten carbon atoms. • 2. Six separate aliquots of 200 ul of the solution in step 1 were transferred to fresh 8 ml vials and mixed with slow vortexing with 800 ul of a solution of hydroxy-propyl beta cyclodextrin at a concentration 50, 25, 12.5, 6.25, 3.125 or 1.5625 mg/ml in distilled water • 2. J774A.1 cells (a macrophage cell line) were plated out in all the wells of a 24-well cluster plates at a seeding density of 5×10^5 cells/ml/well (1 ml RPMI 1640 culture medium per well), and incubated overnight at 37° C. in 5% CO2/air. • 3. The following day, each of the solutions from step 1 were administered in appropriate volumes to wells containing cells in step 2, to give three wells each with a final concentration of 8, 4, or 2 ug/ml. The remaining wells were left untreated. The plate was incubated for a further four hours at 37 degC. • 4. Lipopolysaccharide (from E. coli strain 0111 B4) was added to the wells receiving the octapeptide solution, as well as three of the wells receiving no peptide. The final concentration of lipopolysaccharide was 0.625 ug/ml. • 5. The plate was incubated overnight, and the following day the supernatants were assayed for TNF using a commercial ELISA kit."}, "TNF": {"test_system": "TNF", "assay": "Suppression of TNF secretion stimulated by LPS in rats (Example 5)", "type": "in vivo", "description": "• 1. A cyclic octapeptide with the structure cyclo(-DF-S-Σ-R-DF-S-ΣR-), where Σ represents the associating amino acid as an L-alpha aminocarboxylic acid and the associating functional group borne on the associating amino acid as a side-chain residue consisting of a straight aliphatic chain containing ten carbon atoms, was prepared as a solution in transcutol and hydroxypropyl beta-cyclodextrin as described in example 4, where the concentration of peptide was 1 mg/ml, and the final concentration of cyclodextrin was 40 mg/ml. • 2. Rats weighing 250 g were injected i.p. with 1 ml of peptide solution (1 mg peptide per rat). A second group of rats received 1 ml of the transcutol/cyclodextrin vehicle containing no peptide. One hour later, the rats were further injected with 1 mg of lipopolysaccharide (from Salmonella abortus equi). • 3. 150 minutes later, blood samples were taken, and TNF levels measured in the two groups by ELISA."}}, "data": [{"substance": "Glatiramer acetate [Copaxone]", "values": [{"measurement": "TNF secretion in vitro", "setting": "TNF secretion", "result": "down-regulate TNF secretion in vitro"}]}, {"substance": "cyclo(-DF-S-Σ-R-DF-S-Σ-R-)", "values": [{"measurement": "TNF concentration", "setting": "[1]; peptide 3.125 ug/ml, LPS alone 1780.09", "result": 1494.53, "unit": "pg/mL"}, {"measurement": "TNF concentration", "setting": "[1]; peptide 6.25 ug/ml", "result": 1346.20, "unit": "pg/mL"}, {"measurement": "TNF concentration", "setting": "[1]; peptide 12.5 ug/ml", "result": 1037.31, "unit": "pg/mL"}, {"measurement": "TNF concentration", "setting": "[1]; peptide 25.0 ug/ml", "result": 621.75, "unit": "pg/mL"}, {"measurement": "TNF concentration", "setting": "[1]; peptide 50.0 ug/ml", "result": 613.70, "unit": "pg/mL"}, {"measurement": "Concentration of TNF", "setting": "[2]", "result": 865.4, "unit": "pg/mL"}, {"measurement": "inhibition of TNF secretion", "setting": "[3]; in words, down to 2 ug/ml in the well, cyclodextrin from 40:1 wt:wt downwards", "result": "significant inhibition"}, {"measurement": "TNF concentration", "setting": "[3]; peptide 2 ug/ml, cyclodextrin:peptide 1.25 by weight", "result": 2161.8, "unit": "pg/mL"}, {"measurement": "TNF concentration", "setting": "[3]; peptide 2 ug/ml, cyclodextrin:peptide 2.5 by weight", "result": 2314.2, "unit": "pg/mL"}, {"measurement": "TNF concentration", "setting": "[3]; peptide 2 ug/ml, cyclodextrin:peptide 5 by weight", "result": 2177.2, "unit": "pg/mL"}, {"measurement": "TNF concentration", "setting": "[3]; peptide 2 ug/ml, cyclodextrin:peptide 10 by weight", "result": 2278.3, "unit": "pg/mL"}, {"measurement": "TNF concentration", "setting": "[3]; peptide 2 ug/ml, cyclodextrin:peptide 20 by weight", "result": 2223.9, "unit": "pg/mL"}, {"measurement": "TNF concentration", "setting": "[3]; peptide 2 ug/ml, cyclodextrin:peptide 40 by weight, LPS 0.625 ug/ml, no peptide 2519.3", "result": 2450.2, "unit": "pg/mL"}, {"measurement": "TNF concentration", "setting": "[3]; peptide 4 ug/ml, cyclodextrin:peptide 1.25 by weight", "result": 1599.9, "unit": "pg/mL"}, {"measurement": "TNF concentration", "setting": "[3]; peptide 4 ug/ml, cyclodextrin:peptide 2.5 by weight", "result": 1538.7, "unit": "pg/mL"}, {"measurement": "TNF concentration", "setting": "[3]; peptide 4 ug/ml, cyclodextrin:peptide 5 by weight", "result": 1477.5, "unit": "pg/mL"}, {"measurement": "TNF concentration", "setting": "[3]; peptide 4 ug/ml, cyclodextrin:peptide 10 by weight", "result": 1474.8, "unit": "pg/mL"}, {"measurement": "TNF concentration", "setting": "[3]; peptide 4 ug/ml, cyclodextrin:peptide 20 by weight", "result": 1488.1, "unit": "pg/mL"}, {"measurement": "TNF concentration", "setting": "[3]; peptide 4 ug/ml, cyclodextrin:peptide 40 by weight", "result": 1646.5, "unit": "pg/mL"}, {"measurement": "TNF concentration", "setting": "[3]; peptide 8 ug/ml, cyclodextrin:peptide 1.25 by weight", "result": 1130.9, "unit": "pg/mL"}, {"measurement": "TNF concentration", "setting": "[3]; peptide 8 ug/ml, cyclodextrin:peptide 2.5 by weight", "result": 1105.7, "unit": "pg/mL"}, {"measurement": "TNF concentration", "setting": "[3]; peptide 8 ug/ml, cyclodextrin:peptide 5 by weight", "result": 1140.6, "unit": "pg/mL"}, {"measurement": "TNF concentration", "setting": "[3]; peptide 8 ug/ml, cyclodextrin:peptide 10 by weight", "result": 1218.7, "unit": "pg/mL"}, {"measurement": "TNF concentration", "setting": "[3]; peptide 8 ug/ml, cyclodextrin:peptide 20 by weight", "result": 1298.4, "unit": "pg/mL"}, {"measurement": "TNF concentration", "setting": "[3]; peptide 8 ug/ml, cyclodextrin:peptide 40 by weight", "result": 1276.9, "unit": "pg/mL"}, {"measurement": "TNF (blood)", "setting": "TNF; 1 mg peptide i.p. in transcutol/cyclodextrin, 1 mg LPS one hour later, blood 150 minutes later, vehicle 10717", "result": 2370, "unit": "pg/mL"}, {"measurement": "reduction of TNF production versus vehicle", "setting": "TNF; 1 mg peptide i.p., LPS stimulus", "result": "greater than 75%"}]}]}
